Where a name gives a salt, the structure may show the parent alone.
What was measured:
female NMRI mice = test: Toxicity test on mice (maximum tolerated dose, intravenous injection); conditions: mouse, in vivo, iv
Description: (§1) A toxicity test was conducted on mice for the molecules D and E. These molecules therefore only differ by the substituted methyl group on thiazolidinedione. As a comparison, the test was also conducted by using Δ2TGZ. These analyses were conducted on female NMRI mice weighing 20-25 g. Groups of three mice were set up: a non-injected control batch, a batch receiving the solvent of the molecules to be tested (water PPI, polyethylene glycol 400, absolute ethanol mixture in proportions 5/3/2), three other batches receiving the molecules to be tested. The compounds were injected into the tail vein of mice anaesthetized beforehand. The animals were weighed before and then 24 hours and 48 hours after intravenous injection of the products at the different tested doses and then they were also weighed three times a week for two weeks. The behavior of the whole of the mice was observed before, and then one hour, two hours and three hours after the intravenous injection and then daily for two weeks. The compounds were first tested at the limit of their solubility.

[1] = as above; conditions: mouse, in vivo; female NMRI mice, intravenous injection into the tail vein, observed two weeks
Description: as §1

PC3 = test: Antiproliferative activity (MTS) on PC3; type: cell-based; conditions: Homo sapiens, PC-3; 10^-5 M, 72 hours, triplicate; read-out: percentage of inhibition of cell growth, PC3
Description: (§2) Antiproliferative activity was measured for different compounds according to the invention by analysis of cytoxicity at 10^−5M on diverse cancer cell lines in DMSO in triplicate. For certain molecules and certain lines, the same procedure was used for determining the IC50 values (the required concentration in μM for inhibiting by half the proliferation of the cells), by conducting cytotoxicity tests at concentrations from 0.005 μM to 100 μM in duplicate. The procedure is the following. The cells of the relevant line are sown in the suitable medium (see Table III) added with L-glutamine, with 10% (v/v) of fetal calf serum, 100 IU of penicillin, 100 μg/mL of streptomycin and 1.5 μg/mL of fungizone and maintained under 5% of CO2 at 37° C. 96-well plates are sown with the required number of cells per well (see Table III) in 200 μL of medium. 24 hours later, the chemical compounds to be investigated, dissolved in DMSO, are added and the media are maintained for 72 hours under these conditions with a set final concentration in DMSO (1%). The controls received an equal volume of DMSO. The number of viable cells is measured at 490 nm with the MTS reagent (Promega, Madison Wis.). The IC50s are calculated as the concentrations of compounds inducing 50% inhibition of cell proliferation.
(§3) Tables IV and V below indicate the percentage of inhibition of cell growth, i.e. the percentage of dead cells after treatment with a compound dose of 10^−5 M. The tests were conducted in triplicate.

MDA435 = test: Antiproliferative activity (MTS) on MDA435; type: cell-based; conditions: Homo sapiens, 10^-5 M, 72 hours, triplicate, read-out: percentage of inhibition of cell growth, MDA435
Description: as §2, §3

LNCaP = test: Antiproliferative activity (MTS) on LNCaP; type: cell-based; conditions: Homo sapiens, 72 hours; for inhibition at 10 µM: 10^-5 M, triplicate, read-out: percentage of inhibition of cell growth, LNCaP; for IC50: averages of two independent values
Description: as §2, §3

HCT116 = test: Antiproliferative activity (MTS) on HCT116; type: cell-based; conditions: Homo sapiens, HCT-116; 10^-5 M, 72 hours, triplicate; read-out: percentage of inhibition of cell growth, HCT116
Description: as §2, §3

[2] = test system: cryopreserved human hepatocytes (primary culture); test: Hepatocyte viability (MTT test) on suspended cryopreserved human hepatocytes; type: cell-based; conditions: 90 minutes incubation, relative to non treated cells, Table I campaign
Description: The hepatocyte viability corresponds to the percentage of surviving suspended human hepatocytes after 90 minutes of incubation with the compounds of the invention present at a concentration of […].
Hepatocyte viability was measured for different compounds according to the invention with cryopreserved human hepatocytes (primary culture) suspended and distributed in 96-well plates with a density of 0.1×10^6 cells per well, in a […] culture medium per well (DMEM+gentamycin (50 mg/L)+insulin (4 mg/L)+dexamethasone (1 μM)) in a CO2/air (5%/95%) humidified atmosphere at 37° C. After 30 minutes for attaining equilibrium, […] of culture medium containing the tested compounds (dissolved in DMSO) or of medium only containing DMSO (final concentration of 0.1%) were added with stirring at 900 rpm.
Cytotoxicity is evaluated with an MTT (Thiazolyl Blue Tetrazolium Bromide) test. The tested compounds or the DMSO are left to incubate for 90 minutes, and then 10 μL of MTT at 10 mg/10 mL are added per well for 30 mins. Next, the plates are centrifuged for 10 minutes at 2,000 g, the MTT is removed and some DMSO is added in an amount of 100 μL per well. The plates are gently shaked and then absorbance is measured at 595 nm by means of a spectrophotometric reader of micro-plates. The hepatocyte viability measured here corresponds to the percentage of surviving hepatocytes after 90 minutes of incubation with the compounds tested at a concentration of 100 μM, relatively to non treated cells.
The same tests were conducted for a concentration of compounds at 200 μM.
The tests were conducted in two distinct campaigns. In both cases, troglitazone (K) was used as a reference molecule.

MDA231 = test: Antiproliferative activity (MTS) on MDA231; type: cell-based, human; conditions: Homo sapiens, MDA-MB-231, 72 hours; for inhibition at 10 µM: 10^-5 M, triplicate, read-out: percentage of inhibition of cell growth, MDA231; for IC50: averages of two independent values
Description: as §2, §3

MCF7 = test: Antiproliferative activity (MTS) on MCF7; type: cell-based, human; conditions: Homo sapiens, MCF7, 72 hours; for inhibition at 10 µM: 10^-5 M, triplicate, read-out: percentage of inhibition of cell growth, MCF7; for IC50: averages of two independent values
Description: as §2, §3

Mia-PaCa = test: Antiproliferative activity (MTS) on Mia-PaCa; type: cell-based; conditions: Homo sapiens, MIA PaCa-2, 72 hours; for inhibition at 10 µM: 10^-5 M, triplicate, read-out: percentage of inhibition of cell growth, Mia-PaCa; for IC50: averages of two independent values
Description: as §2, §3

HepG2 = test: Antiproliferative activity (MTS) on HepG2; type: cell-based; conditions: Homo sapiens, 72 hours; for inhibition at 10 µM: 10^-5 M, triplicate, read-out: percentage of inhibition of cell growth, HepG2; for IC50: averages of two independent values
Description: as §2, §3

Compound	maximum tolerated dose (female NMRI mice)	MTD at 2 weeks [1]	inhibition at 10 µM (PC3)	inhibition at 10 µM (MDA435)	inhibition at 10 µM (LNCaP)	IC50 (LNCaP)	inhibition at 10 µM (HCT116)	Hepatocyte viability % (100 μM) [2]	Hepatocyte viability % (200 μM) [2]	inhibition at 10 µM (MDA231)	IC50 (MDA231)	inhibition at 10 µM (MCF7)	IC50 (MCF7)	inhibition at 10 µM (Mia-PaCa)	IC50 (Mia-PaCa)	inhibition at 10 µM (HepG2)	IC50 (HepG2)
Cc1c(C)c2c(c(C)c1O)CCC(C)(COc1ccc(C=C3SC(=O)NC3=O)cc1)O2 (stereo not drawn) [Δ2TGZ, reference compound]	less than 34 mg/kg	–	–	–	–	–	–	–	–	–	–	–	–	–	–	–	–
Cc1c(C)c2c(c(C)c1CCCCCCN)CCC(C)(COc1ccc(/C=C3\SC(=O)N(C)C3=O)cc1)O2 (racemic) [D, (±) 5-{4-[6-(6-amino-hexyl)-2,5,7,8-tetramethyl-chroman-2-ylmethoxy]-benzylidene}-3-methyl-thiazolidine-2,4-dione trifluoroacetate]	–	65.5 mg/kg	92%	101%	88%	6.5 µM	101%	83%	83%	101%	4.6 µM	101%	6.9 µM	103%	3.2 µM	100%	7.9 µM
Cc1c(C)c2c(c(C)c1CCCCCCN)CCC(C)(COc1ccc(/C=C3\SC(=O)NC3=O)cc1)O2 (racemic) [E, (±) 5-{4-[6-(6-amino-hexyl)-2,5,7,8-tetramethyl-chroman-2-ylmethoxy]-benzylidene}thiazolidine-2,4-dione trifluoroacetate]	–	34 mg/kg	40%	65%	53%	5.1 µM	93%	83%	80%	92%	4.7 µM	97%	6.4 µM	94%	3.9 µM	87%	3.1 µM
